Where two headings read alike, the source gives them in different places.
Experiments:
Format in all cases: cell-based
[1] = system: Campylobacter coli ATCC 33559; conditions: P<0.05
[2] = system: Campylobacter jejuni subsp. jejuni ATCC 33560
[3] = system: Campylobacter jejuni PPMQ2b; conditions: P<0.05
[4] = system: Campylobacter jejuni PPMQ3b; conditions: P<0.05
[5] = approximately 30, 40, or 50 mM acid
[6] = approximately 20, 30, 40, or 50 mM acid, P<0.05
[7] = approximately 20, 30, 40, and 50 mM acid
[8] = any of the concentrations tested

| Compound | absorbance compared with cultures in non-supplemented media [1, 5] | absorbance compared with cultures in non-supplemented media [2, 6] | absorbance compared with cultures grown in non-supplemented media ([4]; approximately 20 mM acid) | absorbance compared with cultures in non-supplemented media [1, 7] | acid concentration required to produce cultures with higher absorbance than in non-supplemented media [3] | absorbance compared with cultures grown in non-supplemented media [3, 8] | other results |
| --- | --- | --- | --- | --- | --- | --- | --- |
| CC(O)C(=O)O (racemic) [Lactic, DL-lactic acid] | significantly greater | significantly higher | significantly greater |  |  |  | absorbance compared with cultures grown in non-supplemented media ([3]; approximately 20, 30, 40, or 50 mM acid): significantly greater |
| O=C(O)CC(O)C(=O)O (racemic) [Malic, DL-malic acid] |  | significantly higher |  | significantly higher | approximately 40 mM |  | acid concentration required to produce cultures with significantly higher absorbances than in non-supplemented media [4]: approximately 20 mM |
| O=C(O)CC(O)(CC(=O)O)C(=O)O [Citric, citric acid] |  |  | small but significantly higher |  |  | not significantly different | absorbance compared with isolates grown in non-supplemented media ([1]; approximately 50 mM acid): not significantly different; growth compared with non-supplemented media ([1]; approximately 30 or 40 mM acid): significantly more growth; growth compared with non-supplemented media [2]: significantly more growth; absorbance compared with isolates grown in non-supplemented media ([2]; approximately 50 mM acid, P<0.05): not significantly different |
| O=C(O)/C=C/C(=O)O [Fumaric, fumaric acid] |  | significantly higher | significantly higher | significantly higher | approximately 30 mM |  |  |
| O=C(O)CCC(=O)O [Succinic, succinic acid] | significantly higher |  |  |  |  | none of the concentrations of succinic acid produced significantly higher absorbances | absorbance compared with cultures in non-supplemented media ([2]; approximately 30, 40, or 50 mM acid, P<0.05): significantly higher; absorbance compared with cultures grown in non-supplemented media ([4]; approximately 40 and 50 mM acid): significantly higher |
